From patent publication US6340686B1, “Thienopyrimidine compounds, their production and use” (Takeda Chemical Industries, Ltd., priority 1999, dated 2002)
Values belong to the compound of their own block, whether it stands above or below them.

Key:
plasma LH = experiment: Suppression of plasma LH in castrated monkeys; format: in vivo, cynomolgus monkeys (Macaca fascicularis); details: castrated male cynomolgus monkeys
Procedure: The Example compound No. 2 was orally administered to castrated male cynomolgus monkeys (Macaca fascicularis), and plasma LH was quantified. The male cynomolgus monkeys, used at 4 years 9 months to 6 years 3 months of age at time of experimentation, had been castrated more than 3 months prior to the examination. Test animals [n=3] were given 30 mg/kg (3 ml/kg) of the compound suspended in 0.5% methyl cellulose at a final concentration of 1% by oral administration, and control animals [n=2] were given 3 ml/kg of the 0.5% methyl cellulose dispersant alone by oral administration. At 24 hours and immediately before administration and at 2, 4, 6, 8, 24, and 48 hours after administration, blood was collected for heparinized plasma samples via the femoral vein and immediately stored under freezing conditions.
Plasma LH concentrations were determined by a bioassay using mouse testicular cells. The testicular cells were collected from male BALB/c mice (8 to 9 weeks of age) and washed three times with 1 ml of Dulbecco's modified Eagle medium. (DMEM-H) containing 20 mM HEPES and 0.2% BSA per testis. After incubation at 37° C. for 1 hour, the cells were passed through a nylon mesh filter (70 μm) and dispensed to test tubes at 8×10^5 cells/tube. After the cells were washed twice with 0.4 ml of DMEM-H, 0.4 ml of a DMEM-H solution containing either equine LH (Sigma Company), as the standard LH, or monkey plasma, previously diluted up to 300 fold, as the test sample, was added, followed by a reaction at 37° C. for 2 hours. The testosterone concentration in the culture supernatant was determined by a radioimmunoassay (CIS Diagnostics Company), and the LH concentration in the test monkey plasma was calculated from the standard curve for the standard equine LH.
The results are given together in FIG. 1. […]

[1] = molecular target: T1, GnRH receptors (rat pituitary anterior lobe membrane fraction) (Rattus norvegicus, UniProt P30969); experiment: 125I-leuprorelin binding inhibition, rat pituitary anterior lobe membrane fraction
T1 construct: Anterior lobes of the pituitary glands were isolated from forty Wistar rats; from tissue; host or cells: anterior lobes of pituitary glands of male Wistar rats
T1 sequence (P30969 1-327): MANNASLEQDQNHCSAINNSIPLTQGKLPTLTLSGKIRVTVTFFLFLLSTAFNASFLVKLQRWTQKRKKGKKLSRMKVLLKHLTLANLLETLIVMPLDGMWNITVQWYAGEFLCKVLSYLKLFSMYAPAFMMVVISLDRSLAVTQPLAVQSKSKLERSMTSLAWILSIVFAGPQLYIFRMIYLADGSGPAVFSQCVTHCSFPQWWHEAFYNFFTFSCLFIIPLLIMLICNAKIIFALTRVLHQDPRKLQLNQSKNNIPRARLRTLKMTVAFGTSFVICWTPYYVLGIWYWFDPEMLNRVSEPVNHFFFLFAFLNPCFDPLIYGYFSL
Procedure: (1) Preparation of ^125I-leuprorelin To a tube containing 10 μl of a 3×10^−4M aqueous solution of leuprorelin and 10 μl of 0.01 mg/ml lactoperoxidase, 10 μl (37MBq) of a solution of Na^125I was added. After stirring, 10 μl of 0.001% H2O2 was added, and a reaction was carried out at room temperature for 20 minutes. By adding 700 μl of a 0.05% TFA (trifluoroacetic acid) solution, the reaction was stopped, followed by purification by reversed-phase HPLC. The HPLC conditions used are shown below. ^125I-leuprorelin was eluted at a retention time of 26 to 27 minutes. […] To determine maximum binding quantity, a reaction mixture of 2 μl of 60% DMSO and 10 μl of 38 nM ^125I-leuprorelin was prepared. […] After this filtration, the radioactivity of ^125I-leuprorelin remaining on the filter paper was measured with a γ-counter. The expression (TB-SB)/(TB-NSB)×100 (where SB=radioactivity with the compound added, TB=maximum bound radioactivity, NSB=nonspecifically bound radioactivity) was calculated to find the binding inhibition rate (%) of each test compound. […]

human GnRH receptor = molecular target: T2, human GnRH receptor (Homo sapiens, UniProt P30968); experiment: 125I-leuprorelin binding inhibition, CHO cell membrane fraction containing human GnRH receptor; details: 25° C. for 60 minutes, Hill plot
T2 construct: expressed in transfected cells; host or cells: CHO (Chinese hamster ovary) cells
T2 sequence (P30968 1-328): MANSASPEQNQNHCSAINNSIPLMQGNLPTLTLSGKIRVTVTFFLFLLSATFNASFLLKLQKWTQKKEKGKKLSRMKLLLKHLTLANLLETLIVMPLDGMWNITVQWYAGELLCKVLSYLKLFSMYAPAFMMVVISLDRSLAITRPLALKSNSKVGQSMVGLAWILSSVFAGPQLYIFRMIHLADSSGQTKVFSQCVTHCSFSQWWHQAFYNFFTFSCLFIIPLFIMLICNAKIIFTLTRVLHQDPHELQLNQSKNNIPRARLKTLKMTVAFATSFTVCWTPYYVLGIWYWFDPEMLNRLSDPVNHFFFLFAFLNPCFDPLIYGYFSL
Procedure: To the cell pellet, 10 ml of a cell homogenate buffer (10 mM NaHCO3, 5 mM EDTA, pH 7.5) was added, followed by homogenization using the Polytron homogenizer. […] This precipitate was suspended in 2 ml of an assay buffer and centrifuged at 100,000×g for 1 hour. The membrane fraction recovered as a precipitate was again suspended in 20 ml of the assay buffer, dispensed, and stored at −80° C. before use upon thawing. […] To determine maximum binding quantity, a reaction mixture of 2 μl of 60% DMSO and 10 μl of 38 nM ^125I-leuprorelin was prepared. […] Where the membrane fraction of the CHO with human GnRH receptors expressed was used, the reaction was carried out at 25° C. for 60 minutes. After each reaction, the reaction mixture was aspirated and filtered through a polyethyleneimine-treated Whatman glass filter (GF-F). After this filtration, the radioactivity of ^125I-leuprorelin remaining on the filter paper was measured with a γ-counter. The expression (TB-SB)/(TB-NSB)×100 (where SB=radioactivity with the compound added, TB=maximum bound radioactivity, NSB=nonspecifically bound radioactivity) was calculated to find the binding inhibition rate (%) of each test compound. Furthermore, the inhibition rate was determined by varying the concentration of the test substance and the 50% inhibitory concentration (IC50 value) of the compound was calculated from Hill plot.

SMILES: CONC(=O)Nc1ccc(-c2sc3c(c2CN(C)Cc2ccccc2)c(=O)n(-c2ccccc2)c(=O)n3Cc2c(F)cccc2F)cc1.Cl [Ex. Compd. No. 2, 5-(N-Benzyl-N-methylaminomethyl)-1-(2,6-difluorobenzyl)-6-[4-(3-methoxyureido)phenyl]-3-phenylthieno[2,3-d]pyrimidine-2,4(1H,3H)-dione hydrochloride]
plasma LH concentration, percentage of the baseline LH concentration immediately before administration (plasma LH; 30 mg/kg oral in 0.5% methyl cellulose, by 24 hours after administration): ≤ 20% | plasma LH concentration at 48 hours after administration (plasma LH; 30 mg/kg oral, 48 hours after administration): re-elevation of the plasma LH concentration was noted | effect on blood LH concentration (plasma LH; administered orally, 30 mg/kg): significant depressive effect on blood LH concentration

melting point: 220 to 222 °C
SMILES: CN(Cc1ccccc1)Cc1c(-c2ccc(NC(=O)NCCO)cc2)sc2c1c(=O)n(-c1ccccc1)c(=O)n2Cc1c(F)cccc1F [Example 7, 5-(N-Benzyl-N-methylaminomethyl)-1-(2,6-difluorobenzyl)-6-[4-[3-(2-hydroxyethyl)ureido]phenyl]-3-phenylthieno[2,3-d]pyrimidine-2,4(1H,3H)-dione]

melting point: 164 to 165 °C
SMILES: CN(Cc1ccccc1)Cc1c(-c2ccc(NC(=O)NO)cc2)sc2c1c(=O)n(-c1ccccc1)c(=O)n2Cc1c(F)cccc1F [Example 5, 5-(N-Benzyl-N-methylaminomethyl)-1-(2,6-difluorobenzyl)-6-[4-(3-hydroxyureido)phenyl]-3-phenylthieno[2,3-d]pyrimidine-2,4(1H,3H)-dione]

IC50 ([1]; 125I-leuprorelin binding, calculated from Hill plot): 0.5 µM | inhibition at 1 µM ([1]; read-out: binding inhibition rate (%) Rat (1 μM), 1 μM compound, 125I-leuprorelin, 4° C. for 90 minutes): 64% | IC50 (human GnRH receptor): 0.0002 µM
SMILES: CONC(=O)Nc1ccc(-c2sc3c(c2CN2Cc4ccccc4C2)c(=O)n(-c2ccccc2)c(=O)n3Cc2c(F)cccc2F)cc1 [Ex. Compd. No. 4-2]
